Laboratory results published in ChEMBL document CHEMBL3808341, “Natural nitric oxide (NO) inhibitors from Chloranthus japonicus” (Bioorg Med Chem Lett, 2016).

test system: RAW264.7; test: Inhibition of LPS-induced NO production in mouse RAW264.7 cells after 24 hrs by Griess assay; assay type: functional, cell-based; details: RAW264.7, 24 h

| Compound | IC50 |
| --- | --- |
| COC(=O)/C(C)=C1\C(=O)[C@H](O)[C@]2(C)C3=C(C[C@@H]4[C@]5(OC(=O)C6=C5C[C@H]5[C@](O)(COC(=O)/C(C)=C/COC(=O)CCC(=O)OC6)[C@H]6C[C@H]6[C@]45C)[C@H]31)[C@H]1C[C@H]12 [SHIZUKAOL B] | 14.8 µM |
| COC(=O)/C(C)=C1\C(=O)[C@H](O)[C@]2(C)C3=C(C[C@@H]4[C@]5(OC(=O)C(CO)=C5C[C@H]5[C@H](COC(C)=O)[C@H]6C[C@H]6[C@]45C)[C@H]31)[C@H]1C[C@H]12 | 6.91 µM |
| C/C=C(\C)C(=O)OC[C@]1(O)[C@H]2C[C@H]2[C@]2(C)[C@@H]3CC4=C5[C@H](/C(=C(\C)C(=O)OC)C(=O)[C@H](O)[C@@]5(C)[C@@H]5C[C@H]45)[C@@]34OC(=O)C(COC(=O)CCC(=O)O)=C4C[C@@H]12 | 11.6 µM |
| O=c1c(O)c(-c2ccc(O)c(O)c2)oc2cc(O)cc(O)c12 [QUERCETIN] | 15.9 µM |
| COC(=O)/C(C)=C1\C(=O)[C@H](O)[C@]2(C)C3=C(C[C@@H]4[C@]5(OC(=O)C6=C5C[C@H]5[C@](O)(COC(=O)/C=C(\C)COC(=O)CCC(=O)OC6)[C@H]6C[C@H]6[C@]45C)[C@H]31)[C@H]1C[C@H]12 [SHIZUKAOL F] | 21 µM |
| CO[C@]12OC(=O)C(C)=C1C1=C3[C@](C)([C@@H]4C[C@@H]4[C@@]3(O)C[C@@H]3[C@]14OC(=O)C1=C4C[C@H]4[C@](O)(COC(=O)/C(C)=C/COC(=O)CCC(=O)OC1)[C@H]1C[C@H]1[C@]34C)[C@H]2O | 43.2 µM |
| C=C1[C@H]2C[C@H]2[C@]2(C)[C@@H]3[C@@H](O)C4=C5[C@H](/C(=C(\C)C(=O)OC)C(=O)[C@H](O)[C@@]5(C)[C@@H]5C[C@H]45)[C@@]34OC(=O)C(C)=C4C[C@@H]12 | 46.5 µM |
| C=C1[C@H]2C[C@H]2[C@]2(C)[C@@H]3CC4=C5[C@H](/C(=C(\C)C(=O)OC)C(=O)C[C@@]5(C)[C@@H]5C[C@H]45)[C@@]34OC(=O)C(C)=C4C[C@@H]12 | 24.4 µM |
| C=C1[C@H]2C[C@H]2[C@]2(C)[C@@H]3CC4=C5[C@H](/C(=C(/C)C(=O)OC)C(=O)[C@H](O)[C@@]5(C)[C@@H]5C[C@H]45)[C@@]34OC(=O)C(C)=C4C[C@@H]12 | 26.5 µM |
| C=C1[C@H]2C[C@H]2[C@]2(C)[C@@H]3CC4=C5[C@H](/C(=C(\C)C(=O)OC)C(=O)[C@H](O)[C@@]5(C)[C@@H]5C[C@H]45)[C@@]34OC(=O)C(C)=C4C[C@@H]12 | 27 µM |
| C=C1[C@H]2C[C@H]2[C@]2(C)[C@@H]3C[C@@]4(O)C5=C(C6=C(C)C(=O)O[C@]6(OCCCC)[C@H](O)[C@@]5(C)[C@@H]5C[C@@H]54)[C@@]34OC(=O)C(C)=C4C[C@@H]12 | 39.4 µM |
| C=C1[C@H]2C[C@H]2[C@@]2(C)[C@H]1[C@@H](OC(C)=O)C1=C(C)C(=O)O[C@@]13[C@@H]1C4=C(C[C@H]32)[C@H]2C[C@H]2[C@]4(C)[C@@H](O)C(=O)/C1=C(/C)C(=O)OC | 25.1 µM |
| C=C1[C@H]2C[C@H]2[C@]2(C)[C@@H]3CC4=C5[C@H](C(C(C)C(=O)OC)=C(O)C(=O)[C@@]5(C)[C@@H]5C[C@H]45)[C@@]34OC(=O)C(C)=C4C[C@@H]12 (some centres not stated) | 26.3 µM |

test system: RAW264.7; test: Inhibition of LPS-induced NO production in mouse RAW264.7 cells at 50 uM after 24 hrs by Griess assay; assay type: functional; details: RAW264.7, 24 h

| Compound | inhibition at 50 µM |
| --- | --- |
| C=C1[C@H]2C[C@H]2[C@]2(C)[C@@H]3C[C@@]4(OO)C5=C(/C(=C(\C)C(=O)OC)C(=O)[C@H](O)[C@@]5(C)[C@@H]5C[C@@H]54)[C@@]34OC(=O)C(C)=C4C[C@@H]12 | < 50% |
| C=C1[C@H]2C[C@H]2[C@]2(C)[C@@H]3C[C@@]4(O)C5=C(C6=C(C)C(=O)O[C@]6(OC)[C@H](O)[C@@]5(C)[C@@H]5C[C@@H]54)[C@@]34OC(=O)C(C)=C4C[C@@H]12 | < 50% |
| C=C1[C@H]2C[C@H]2[C@@]2(C)[C@H]1[C@@H](OC(C)=O)C1=C(C)C(=O)O[C@@]13C1=C4[C@](C)([C@@H]5C[C@@H]5[C@@]4(O)C[C@H]32)[C@@H](O)C(=O)/C1=C(/C)C(=O)OC | < 50% |
| C=C1[C@H]2C[C@H]2[C@]2(C)[C@@H]3C[C@@]4(O)C5=C(C6=C(C)C(=O)O[C@]6(O)[C@H](O)[C@@]5(C)[C@@H]5C[C@@H]54)[C@@]34OC(=O)C(C)=C4C[C@@H]12 | < 50% |
